Species: Rattus norvegicus
Assay: DrugMatrix - Regimen: Daily Repeat
Type: toxicity, organism-based, Sprague-Dawley
Design: regimen Daily Repeat, gender Male, age 6-8 weeks
Conditions: in vivo, po, 1500 mg/kg, route oral GAVAGE, dose level High, vehicle .5 % CMC; for ABSOLUTE BASOPHIL / ABSOLUTE EOSINOPHIL / ABSOLUTE LYMPHOCYTE / ABSOLUTE MONOCYTE / ABSOLUTE SEGMENTED NEUTROPHIL / BASOPHIL / EOSINOPHIL / ERYTHROCYTE COUNT / HEMATOCRIT / HEMOGLOBIN / LEUKOCYTE COUNT / LYMPHOCYTE / MEAN CORPUSCULAR HEMOGLOBIN / MEAN CORPUSCULAR HEMOGLOBIN CONCENTRATION / MEAN CORPUSCULAR VOLUME / MONOCYTE / NEUTROPHIL / NUCLEATED RED BLOOD CELLS / PLATELET COUNT: tissue Blood
[1] = 72 h, tissue Plasma, time 3 day
[2] = 120 h, tissue Plasma, time 5 day

## CC(C)=CCC/C(C)=C/CO [GERANIOL]
72 h, time 3 day
  ABSOLUTE BASOPHIL: 0 CELLS/uL
  ABSOLUTE EOSINOPHIL: 0 CELLS/uL
  ABSOLUTE LYMPHOCYTE: 15609.33 CELLS/uL
  ABSOLUTE MONOCYTE: 78.67 CELLS/uL
  ABSOLUTE SEGMENTED NEUTROPHIL: 1378.67 CELLS/uL
  BASOPHIL: 0%
  EOSINOPHIL: 0%
  ERYTHROCYTE COUNT: 5.7 x10E6/uL
  HEMATOCRIT: 37.23%
  HEMOGLOBIN: 14.37 G/DL
  LEUKOCYTE COUNT: 17.07 x10E3/uL
  LYMPHOCYTE: 92%
  MEAN CORPUSCULAR HEMOGLOBIN: 25.2 pg
  MEAN CORPUSCULAR HEMOGLOBIN CONCENTRATION: 38.57 G/DL
  MEAN CORPUSCULAR VOLUME: 65.37 fL
  MONOCYTE: 0.33%
  NEUTROPHIL: 7.67%
  NUCLEATED RED BLOOD CELLS: 0.33 /100WBC
  PLATELET COUNT: 1276 x10E3/uL
[1]
  ALANINE AMINOTRANSFERASE: 47.33 u/L
  ALBUMIN: 4.4 G/DL
  ALKALINE PHOSPHATASE: 442 u/L
  ASPARTATE AMINOTRANSFERASE: 82 u/L
  BLOOD UREA NITROGEN: 13 mg/dL
  CARBON DIOXIDE: 29 mmol/L
  CHLORIDE: 100.67 MEQ/L
  CHOLESTEROL: 46.33 mg/dL
  CREATINE PHOSPHOKINASE: 471.33 u/L
  CREATININE: 0.25 mg/dL
  GLUCOSE: 162 mg/dL
  LACTATE DEHYDROGENASE: 193.67 u/L
  LIPASE: 9 u/L
  PHOSPHORUS: 14.7 mg/dL
  POTASSIUM: 7.11 MEQ/L
  SODIUM: 143.87 MEQ/L
  TOTAL BILIRUBIN: 0.13 mg/dL
  TOTAL PROTEIN: 5.93 G/DL
  URIC ACID: 2.07 mg/dL
120 h, time 5 day
  ABSOLUTE BASOPHIL: 0 CELLS/uL
  ABSOLUTE EOSINOPHIL: 0 CELLS/uL
  ABSOLUTE LYMPHOCYTE: 19247.33 CELLS/uL
  ABSOLUTE MONOCYTE: 1179 CELLS/uL
  ABSOLUTE SEGMENTED NEUTROPHIL: 2373.67 CELLS/uL
  BASOPHIL: 0%
  EOSINOPHIL: 0%
  ERYTHROCYTE COUNT: 6.01 x10E6/uL
  HEMATOCRIT: 36.67%
  HEMOGLOBIN: 14.67 G/DL
  LEUKOCYTE COUNT: 22.8 x10E3/uL
  LYMPHOCYTE: 84.67%
  MEAN CORPUSCULAR HEMOGLOBIN: 24.53 pg
  MEAN CORPUSCULAR HEMOGLOBIN CONCENTRATION: 40.03 G/DL
  MEAN CORPUSCULAR VOLUME: 61.2 fL
  MONOCYTE: 5%
  NEUTROPHIL: 10.33%
  NUCLEATED RED BLOOD CELLS: 0 /100WBC
  PLATELET COUNT: 1333 x10E3/uL
[2]
  ALANINE AMINOTRANSFERASE: 63 u/L
  ALBUMIN: 4.63 G/DL
  ALKALINE PHOSPHATASE: 302.67 u/L
  ASPARTATE AMINOTRANSFERASE: 95.67 u/L
  BLOOD UREA NITROGEN: 18 mg/dL
  CARBON DIOXIDE: 32 mmol/L
  CHLORIDE: 102.33 MEQ/L
  CHOLESTEROL: 85.67 mg/dL
  CREATINE PHOSPHOKINASE: 441 u/L
  CREATININE: 0.16 mg/dL
  GLUCOSE: 143 mg/dL
  LACTATE DEHYDROGENASE: 772 u/L
  LIPASE: 10 u/L
  PHOSPHORUS: 12.2 mg/dL
  POTASSIUM: 6.32 MEQ/L
  SODIUM: 142.2 MEQ/L
  TOTAL BILIRUBIN: 0.1 mg/dL
  URIC ACID: 2 mg/dL

Source: ChEMBL document CHEMBL3885881, “DrugMatrix”
